Laboratory results from publication PMC10641276 (Saudi Pharmaceutical Journal : SPJ, 2023).

Target: thymidine phosphorylase (Escherichia coli, UniProt P07650)
Format: biochemical
Conditions: thymidine phosphorylase inhibition versus standard drug (7-deazaxanthine)

Sequence of thymidine phosphorylase (P07650 whole entry): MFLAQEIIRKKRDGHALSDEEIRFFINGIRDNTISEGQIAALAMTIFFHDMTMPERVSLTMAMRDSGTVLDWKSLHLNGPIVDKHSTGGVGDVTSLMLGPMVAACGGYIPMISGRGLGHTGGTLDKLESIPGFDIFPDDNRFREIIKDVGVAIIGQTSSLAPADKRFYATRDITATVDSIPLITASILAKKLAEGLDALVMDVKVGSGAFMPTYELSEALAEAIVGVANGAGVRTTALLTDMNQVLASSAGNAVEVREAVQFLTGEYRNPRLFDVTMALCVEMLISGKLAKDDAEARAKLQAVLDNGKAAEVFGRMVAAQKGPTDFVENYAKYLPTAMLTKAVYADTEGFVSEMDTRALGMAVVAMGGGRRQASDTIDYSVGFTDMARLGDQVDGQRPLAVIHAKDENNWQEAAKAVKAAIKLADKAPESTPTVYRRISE

| SMILES | potency compared with standard drug |
| --- | --- |
| C(=N\c1nnc(-c2cccc(-c3nnc(/N=C/c4ccc(-c5ccccc5)cc4)s3)n2)s1)/c1ccc(-c2ccccc2)cc1 [4e, (1E,1'E)-N,N'-(pyridine-2,6-diylbis(1,3,4-thiadiazole-5,2-diyl))bis(1-([1,1'-biphenyl]-4-yl)methanimine)] | less potent than the standard drug |
| CN(C)c1ccc(/C=N/c2nnc(-c3cccc(-c4nnc(/N=C/c5ccc(N(C)C)cc5)s4)n3)s2)cc1 [4i, 4,4'-((1E,1'E)-((pyridine-2,6-diylbis(1,3,4-thiadiazole-5,2-diyl))bis(azanylylidene))bis(methanylylidene))bis(N,N-dimethylaniline)] | less potent than the standard drug |
| Cc1ccc(-c2ccc(/C=N/c3nnc(-c4cccc(-c5nnc(/N=C/c6ccc(-c7ccc(C)cc7)cc6)s5)n4)s3)cc2)cc1 [4n, (1E,1'E)-N,N'-(pyridine-2,6-diylbis(1,3,4-thiadiazole-5,2-diyl))bis(1-(4'-methyl-[1,1'-biphenyl]-4-yl)methanimine)] | less potent than the standard drug |
